EPSA data for 12 molecules are collected here from patent US20260022143A1, “Cyclic Peptide Inhibitors of IL-23” (JANSSEN PHARMACEUTICA NV, priority 2022, published 2026).

Starred links: 1 amine or outer side, 2 acyl side, 3 side chain; linkers in the order of their positions; H or OH if unused. Positions of bridges follow the written chain, without caps; N, C: chain ends. Non-standard residues stand in square brackets, D forms with d. Residues, ends and D or L forms follow the SMILES beside them. *: point of attachment. Trp(7-(3-AcNH-Ph)) = CC(=O)Nc1cccc(-c2cccc3c(C[C@H](N)C(=O)O)c[nH]c23)c1; X36 = C[N+]1(CCCc2cn(-c3ccc(C[C@H](N[*:1])C(=O)[*:2])cc3)nn2)CCOCC1; X13 = C[N+]1(Cc2cn(-c3ccc(C[C@H](N[*:1])C(=O)[*:2])cc3)nn2)CCOCC1; Me3N+(CH2)2O(CH2)2O(CH2)2CO = C[N+](C)(C)CCOCCOCCC(=O)*; CH2CH2OCH2CH2OCH2CH2NMe3+ = C[N+](C)(C)CCOCCOCC*; Trp(7-Me) = Cc1cccc2c(C[C@H](N)C(=O)O)c[nH]c12; dLys(Me3) = C[N+](C)(C)CCCC[C@@H](N)C(=O)O; 3Pal(5-Me) = Cc1cncc(C[C@H](N)C(=O)O)c1; 2Nal = N[C@@H](Cc1ccc2ccccc2c1)C(=O)O; AEF = NCCOc1ccc(C[C@H](N)C(=O)O)cc1; 3Pal = N[C@@H](Cc1cccnc1)C(=O)O; Ethyl(2-guanidino) = N=C(N)NCC*; Lys(Me) = CNCCCC[C@H](N)C(=O)O; Pen = CC(C)(S)[C@H](N)C(=O)O; X8 = C[N+](C)(C)CCCCCCCC*; Thp = NC1(C(=O)O)CCOCC1; X3 = C[N+](C)(C)CCCCC*; Sar = CNCC(=O)O

The data set in a line: Exposed Polar Surface Area (EPSA). It is filed as physicochemical. The conditions noted are these: SFC on Chirex 3014 column; sample 1 mM DMSO stock; read-out: EPSA. An outline of the steps: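 Compounds, as 1 mM DMSO stock, were injected in duplicate onto an SFC Chirex 3014 column at 35 °C and eluted with a CO2/methanol (20 mM ammonium formate) gradient. EPSA values in Å^2 were derived from retention times using a linear fit to eight calibration standards, reinjected every 20 compounds.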
For the molecule `CC(=O)NCCCC[C@@H]1NC(=O)[C@H](Cc2c[nH]c3c(C)cccc23)NC(=O)[C@H]([C@@H](C)O)NC(=O)[C@H](CC(N)=O)NC(=O)[C@@H](NC(=O)[C@@H](CCCC[N+](C)(C)C)NC(C)=O)C(C)(C)SSC(C)(C)[C@@H](C(=O)N[C@@H](Cc2ccc(OCCCCC[N+](C)(C)C)cc2)C(=O)N[C@@H](Cc2ccc3ccccc3c2)C(=O)NC2(C(=O)N[C@@H](CCCCNC(C)=O)C(=O)N[C@@H](CC(N)=O)C(=O)N[C@@H](Cc3cccnc3)C(=O)N(C)CC(N)=O)CCOCC2)NC1=O` [compound 450, MeCO-k(Me)3-Pen(3)-N-T-7MeW-K(Ac)-Pen(3)-TMAPF-2Nal-THP-K(Ac)-N-3Pya-Sar-CONH2] (Ac-[dLys(Me3)][Pen]NT[Trp(7-Me)]K(Ac)[Pen]Y(X3)[2Nal][Thp]K(Ac)N[3Pal][Sar]-NH2; disulfide 2-7), the EPSA is 165 A^2.
Turning to `CC(=O)NCCCC[C@@H]1NC(=O)[C@H](Cc2c[nH]c3c(-c4cccc(NC(C)=O)c4)cccc23)NC(=O)[C@H]([C@@H](C)O)NC(=O)[C@H](CC(N)=O)NC(=O)[C@@H](NC(C)=O)C(C)(C)SSC(C)(C)[C@@H](C(=O)N[C@@H](Cc2ccc(OCCCCC[N+](C)(C)C)cc2)C(=O)N[C@@H](Cc2ccc3ccccc3c2)C(=O)NC2(C(=O)N[C@@H](CCCCNC(C)=O)C(=O)N[C@@H](CC(N)=O)C(=O)N[C@@H](Cc3cccnc3)C(=O)N(C)CC(N)=O)CCOCC2)NC1=O` [compound 452, MeCO-Pen(3)-N-T-7(3NAcPh)W-K(Ac)-Pen(3)-TMAPF-2Nal-THP-K(Ac)-N-3Pya-Sar-CONH2] (Ac-[Pen]NT[Trp(7-(3-AcNH-Ph))]K(Ac)[Pen]Y(X3)[2Nal][Thp]K(Ac)N[3Pal][Sar]-NH2; disulfide 1-6), the EPSA was found to be 163 A^2.
As to `CC(=O)NCCCC[C@@H]1NC(=O)[C@H](Cc2c[nH]c3c(C)cccc23)NC(=O)[C@H]([C@@H](C)O)NC(=O)[C@H](CC(N)=O)NC(=O)[C@@H](NC(C)=O)C(C)(C)SSC(C)(C)[C@@H](C(=O)N[C@@H](Cc2ccc(-n3cc(CCC[N+]4(C)CCOCC4)nn3)cc2)C(=O)N[C@@H](Cc2ccc3ccccc3c2)C(=O)NC2(C(=O)N[C@@H](CCC(=O)O)C(=O)N[C@@H](CC(N)=O)C(=O)N[C@@H](Cc3cccnc3)C(=O)N(C)CC(N)=O)CCOCC2)NC1=O` [compound 453] (Ac-[Pen]NT[Trp(7-Me)]K(Ac)[Pen][X36][2Nal][Thp]EN[3Pal][Sar]-NH2; disulfide 1-6), the EPSA was determined as 173 A^2.
Take `CC(=O)NCCCC[C@@H]1NC(=O)[C@H](Cc2c[nH]c3c(C)cccc23)NC(=O)[C@H]([C@@H](C)O)NC(=O)[C@H](CC(N)=O)NC(=O)[C@@H](NC(C)=O)C(C)(C)SSC(C)(C)[C@@H](C(=O)N[C@@H](Cc2ccc(OCCCCCCCC[N+](C)(C)C)cc2)C(=O)N[C@@H](Cc2ccc3ccccc3c2)C(=O)NC2(C(=O)N[C@@H](CCC(=O)O)C(=O)N[C@@H](CC(N)=O)C(=O)N[C@@H](Cc3cccnc3)C(=O)N(C)CC(N)=O)CCOCC2)NC1=O` [compound 457] (Ac-[Pen]NT[Trp(7-Me)]K(Ac)[Pen]Y(X8)[2Nal][Thp]EN[3Pal][Sar]-NH2; disulfide 1-6 (inferred)): the EPSA turned out to be 163 A^2.
With `CC(=O)NCCCC[C@H](NC(=O)[C@H](CCC(=O)O)NC(=O)C1(NC(=O)[C@H](Cc2ccc3ccccc3c2)NC(=O)[C@H](Cc2ccc(-n3cc(C[N+]4(C)CCOCC4)nn3)cc2)NC(=O)[C@H]2NC(=O)[C@H](CCCCNC(C)=O)NC(=O)[C@H](Cc3c[nH]c4c(C)cccc34)NC(=O)[C@H]([C@@H](C)O)NC(=O)[C@H](CC(N)=O)NC(=O)[C@@H](NC(C)=O)C(C)(C)SSC2(C)C)CCOCC1)C(=O)N[C@@H](Cc1cccnc1)C(=O)N(C)CC(N)=O` [compound 460] (Ac-[Pen]NT[Trp(7-Me)]K(Ac)[Pen][X13][2Nal][Thp]EK(Ac)[3Pal][Sar]-NH2; disulfide 1-6), the EPSA was determined as 167 A^2.
Regarding `CC(=O)N(C)CCCC[C@H](NC(=O)[C@H](Cc1c[nH]c2ccccc12)NC(=O)[C@H](Cc1ccc2ccccc2c1)NC(=O)[C@H](Cc1ccc(OCCOCCOCC[N+](C)(C)C)cc1)NC(=O)[C@H]1NC(=O)[C@H](Cc2c[nH]c3ccccc23)NC(=O)[C@H](Cc2c[nH]c3c(C)cccc23)NC(=O)[C@H]([C@@H](C)O)NC(=O)[C@H](Cc2c[nH]c3ccccc23)NC(=O)[C@@H](NC(=O)CCOCCOCC[N+](C)(C)C)C(C)(C)SSC1(C)C)C(=O)N[C@@H](CC(N)=O)C(=O)N[C@@H](Cc1cccnc1)C(=O)N(C)CC(=O)N(C)C` [compound 465, cPEG3aCO-Pen(3)-W-T-7MeW-W-Pen(3)-APEG3f-2Nal-W-K(NMeAc)-N-3Pya-Sar-CON(Me)2] ({Me3N+(CH2)2O(CH2)2O(CH2)2CO}-[Pen]WT[Trp(7-Me)]W[Pen]Y(CH2CH2OCH2CH2OCH2CH2NMe3+)[2Nal]W[Lys(Me)](Ac)N[3Pal][Sar]-NMe2; disulfide 1-6), the EPSA amounted to 176 A^2.
Turning to `CC(=O)NCCCC[C@@H]1NC(=O)[C@H](Cc2c[nH]c3c(C)cccc23)NC(=O)[C@H]([C@@H](C)O)NC(=O)[C@H](CC(N)=O)NC(=O)[C@@H](NC(=O)[C@@H](CCCC[N+](C)(C)C)NC(C)=O)C(C)(C)SSC(C)(C)[C@@H](C(=O)N[C@@H](Cc2ccc(OCCN)cc2)C(=O)N[C@@H](Cc2ccc3ccccc3c2)C(=O)NC2(C(=O)N[C@@H](CCC(=O)O)C(=O)N[C@@H](CC(N)=O)C(=O)N[C@@H](Cc3cncc(C)c3)C(=O)N(C)CC(N)=O)CCOCC2)NC1=O` [compound 474] (Ac-[dLys(Me3)][Pen]NT[Trp(7-Me)]K(Ac)[Pen][AEF][2Nal][Thp]EN[3Pal(5-Me)][Sar]-NH2; disulfide 2-7), the EPSA was 185 A^2.
`CC(=O)NCCCC[C@@H]1NC(=O)[C@H](Cc2c[nH]c3c(C)cccc23)NC(=O)[C@H]([C@@H](C)O)NC(=O)[C@H](CC(N)=O)NC(=O)[C@H](NC(C)=O)CSSC[C@@](C)(C(=O)N[C@@H](Cc2ccc(OCCCCC[N+](C)(C)C)cc2)C(=O)N[C@@H](Cc2ccc3ccccc3c2)C(=O)NC2(C(=O)N[C@@H](CCCCNC(C)=O)C(=O)N[C@@H](CC(N)=O)C(=O)N[C@@H](Cc3cccnc3)C(=O)N(C)CC(N)=O)CCOCC2)NC1=O` [compound 478, MeCO-C(3)-N-T-7MeW-K(Ac)-aMeC(3)-TMAPF-2Nal-THP-K(Ac)-N-3Pya-Sar-CONH2]: the EPSA came to 164 A^2.
`CC(=O)NCCCC[C@@H]1NC(=O)[C@H](Cc2c[nH]c3c(-c4cccc(NC(C)=O)c4)cccc23)NC(=O)[C@H]([C@@H](C)O)NC(=O)[C@H](CC(N)=O)NC(=O)[C@@H](NC(=O)[C@@H](CCCC[N+](C)(C)C)NC(C)=O)C(C)(C)SSC(C)(C)[C@@H](C(=O)N[C@@H](Cc2ccc(OCCNC(=N)N)cc2)C(=O)N[C@@H](Cc2ccc3ccccc3c2)C(=O)NC2(C(=O)N[C@@H](CCC(=O)O)C(=O)N[C@@H](CC(N)=O)C(=O)N[C@@H](Cc3cncc(C)c3)C(=O)N(C)CC(N)=O)CCOCC2)NC1=O` [compound 480, MeCO-k(Me)3-Pen(3)-N-T-7(3NAcPh)W-K(Ac)-Pen(3)-AEF(G)-2Nal-THP-E-N-5MePyridinAla-Sar-CONH2] (Ac-[dLys(Me3)][Pen]NT[Trp(7-(3-AcNH-Ph))]K(Ac)[Pen]Y(Ethyl(2-guanidino))[2Nal][Thp]EN[3Pal(5-Me)][Sar]-NH2; disulfide 2-7): the EPSA worked out at 198 A^2.
With `CC(=O)NCCCC[C@@H]1NC(=O)[C@H](Cc2c[nH]c3c(-c4cccc(NC(C)=O)c4)cccc23)NC(=O)[C@H]([C@@H](C)O)NC(=O)[C@H](CC(N)=O)NC(=O)[C@@H](NC(C)=O)C(C)(C)SSC(C)(C)[C@@H](C(=O)N[C@@H](Cc2ccc(OCCNC(=N)N)cc2)C(=O)N[C@@H](Cc2ccc3ccccc3c2)C(=O)NC2(C(=O)N[C@@H](CCCCN(C)C(C)=O)C(=O)N[C@@H](CC(N)=O)C(=O)N[C@@H](Cc3cncc(C)c3)C(=O)N(C)CC(N)=O)CCOCC2)NC1=O` [compound 482, MeCO-Pen(3)-N-T-7(3NAcPh)W-K(Ac)-Pen(3)-AEF(G)-2Nal-THP-K(NMeAc)-N-5MePyridinAla-Sar-CONH2], the EPSA worked out at 180 A^2.
Next, `CC(=O)N(C)CCCC[C@@H]1NC(=O)[C@H](Cc2c[nH]c3c(C)cccc23)NC(=O)[C@H]([C@@H](C)O)NC(=O)[C@H](CC(=O)N(C)C)NC(=O)[C@@H](NC(=O)CCOCCOCC[N+](C)(C)C)C(C)(C)SSC[C@@H](C(=O)N[C@@H](Cc2ccc(OCCCCC[N+](C)(C)C)cc2)C(=O)N[C@@H](Cc2ccc3ccccc3c2)C(=O)NC2(C(=O)N[C@@H](CCCCN(C)C(C)=O)C(=O)N[C@@H](CC(N)=O)C(=O)N[C@@H](Cc3cccnc3)C(=O)N(C)CC(=O)N(C)C)CCOCC2)NC1=O` [compound 485, cPEG3aCO-Pen(3)-N(N(Me)2)-T-7MeW-K(NMeAc)-C(3)-TMAPF-2Nal-THP-K(NMeAc)-N-3Pya-Sar-CON(Me)2] ({Me3N+(CH2)2O(CH2)2O(CH2)2CO}-[Pen]D(NMe2)T[Trp(7-Me)][Lys(Me)](Ac)CY(X3)[2Nal][Thp][Lys(Me)](Ac)N[3Pal][Sar]-NMe2; disulfide 1-6): 163 A^2.
Next, `CC(=O)NCCCC[C@@H]1NC(=O)[C@H](Cc2c[nH]c3c(C)cccc23)NC(=O)[C@H]([C@@H](C)O)NC(=O)[C@H](CC(N)=O)NC(=O)[C@@H](NC(=O)COCCOCCNC(=O)COCCOCCNC(=O)COc2ccc(-c3ccc(F)cc3F)cc2C(=O)O)C(C)(C)SSC(C)(C)[C@@H](C(=O)N[C@@H](Cc2ccc(OCCCCC[N+](C)(C)C)cc2)C(=O)N[C@@H](Cc2ccc3ccccc3c2)C(=O)NC2(C(=O)N[C@@H](CCCCN(C)C(C)=O)C(=O)N[C@@H](CC(N)=O)C(=O)N[C@@H](Cc3cccnc3)C(=O)N(C)CC(N)=O)CCOCC2)NC1=O` [compound 490, DFNPEG2PEG2CO-Pen(3)-N-T-7MeW-K(Ac)-Pen(3)-TMAPF-2Nal-THP-K(Ac)-N-3Pya-Sar-CONH2]: 182 A^2.
